Results: patent publication US10144732B2 (BIOGEN MA INC., priority 2014, dated 2018)
Several values for one entry are separate records, joined by “and”; a condition that tells them apart may be missing. Equal values may be shown once. Where a name gives a salt, the structure may show the parent alone.

The compounds below were run against T1, Human ATX protein (Homo sapiens, UniProt Q13822) (assay: ATX biochemical assay (FRET, FS-3 substrate)). Settings: FRET assay, FS-3 2 μM, ATX 1.0 μg/mL, 30 minutes preincubation, 2 hours reaction at room temperature; read-out: IC50.
T1 construct: made in house
Description: ATX (Autotaxin) is a 125 KDa glycoprotein with lysophospholipase D (LPLD) activity that generates the bioactive lipid lysophosphatidic acid (LPA) from lysophosphatidylcholine (LPC). The ATX biochemical assay utilizes a FRET (fluorescence resonance energy transfer) technology platform. The fluorescence signal of FRET substrate FS-3 is quenched due to intra-molecular FRET of a fluorophore to a non-fluorescing quencher (Ferguson, C. G., et al., Org Lett. 2006 May 11; 8(10): 2023-2026, which is incorporated by reference in its entirety). ATX catalyzes the hydrolysis of the substrate which separates the dabsyl quencher from the fluorescein reporter, which becomes fluorescent. The reaction is monitored by a SpectraMax M5 (Molecular Devices, Sunnyvale, Calif.) with at excitation wavelength 485 nm and emission wavelength […].
Fatty acid free-BSA (Sigma A8806): 10 mg/mL in H2O, stored at 4° C.
2×ATX assay buffer: 100 mM Tris, 280 mM NaCl, 10 mM KCl, 2 mM CaCl2, 2 mM MgCl2, pH 7.4.
Human ATX protein: expressed and purified in house. Stored at −80° C.
Substrate FS-3 (Echelon, L-2000): 100 μg in 77.74 μL H2O (1 mM stock), stored at −20° C.
384-well flat bottom plates—Corning #3575.
Compound dilution—All compounds were provided at 10 mM in 100% DMSO. In the first well, 2 μL of 10 mM compound was added to 78 μL of DMSO (1:40 dilution). In subsequent wells 3-fold dilution (total 10 dilutions) were performed.
1×ATX assay buffer was made up with a final concentration of 1 mg/mL fatty acid free-BSA using 2×ATX assay buffer, 10 mg/ml fatty acid free-BSA and ddH2O.
[…]. The final concentration of ATX in the reaction as 1.0 μg/mL.
2 μL per well of compounds was transferred to provide the desired concentration. The plate was centrifuged, then incubated at room temperature for 30 minutes on the shaker.
FS-3 was diluted with 1×ATX assay buffer to a concentration of FS-3 of 10 μM (5×). Then, 10 μL was added per well to the assay plate. The final concentration of FS-3 in the reaction was 2 μM. The plate was centrifuged. The plate was kept shaking at room temperature for 2 hours. Because FS-3 substrate is light sensitive, plates were kept covered and protected from light.
Fluorescence was measured using SpectraMax M5 (excitation at 485 nm/emission at 538 nm, top read).

Structure (SMILES)	IC50
O=C(CCc1nnn[nH]1)N1CCc2c(C(F)(F)F)nn(Cc3ccc(F)cc3)c2C1 [Example 1-32, 1-(1-(4-Fluorobenzyl)-3-(trifluoromethyl)-4,5-dihydro-1H-pyrazolo[3,4-c]pyridin-6(7H)-yl)-3-(1H-tetrazol-5-yl)propan-1-one]	≤ 0.1 µM
O=C(CC1CCN2CCCC2C1)N1CCc2c(C(F)(F)F)nn(Cc3ccc(Cl)cc3F)c2C1 (stereo not drawn) [Example 1-33, 1-(1-(4-Chloro-2-fluorobenzyl)-3-(trifluoromethyl)-4,5-dihydro-1H-pyrazolo[3,4-c]pyridin-6(7H)-yl)-2-(octahydroindolizin-7-yl)ethanone TFA salt]	≤ 0.1 µM
O=C(CC1CCN2CCCC2C1)N1CCc2c(C(F)(F)F)nn(Cc3ccc(F)cc3)c2C1 (stereo not drawn) [Example 1-34, 1-(1-(4-Fluorobenzyl)-3-(trifluoromethyl)-4,5-dihydro-1H-pyrazolo[3,4-c]pyridin-6(7H)-yl)-2-(octahydroindolizin-7-yl)ethanone TFA salt]	≤ 0.1 µM
O=C(C1CN2CCC1CC2)N1CCc2c(C(F)(F)F)nn(Cc3ccc(F)cc3)c2C1 (stereo not drawn) [Example 1-35, (1-(4-Fluorobenzyl)-3-(trifluoromethyl)-4,5-dihydro-1H-pyrazolo[3,4-c]pyridin-6(7H)-yl)(quinuclidin-3-yl)methanone TFA salt]	0.1 to 0.25 µM
O=C(N1CCc2c(C(F)(F)F)nn(Cc3ccc(F)cc3)c2C1)C12CCN(CC1)CC2 [Example 1-36, (1-(4-Fluorobenzyl)-3-(trifluoromethyl)-4,5-dihydro-1H-pyrazolo[3,4-c]pyridin-6(7H)-yl)(quinuclidin-4-yl)methanone TFA salt]	0.25 to 0.5 µM
CCOC(=O)[C@H]1CC[C@H](CC(=O)N2CCc3c(C(F)F)nn(Cc4ccc(F)cc4)c3C2)CC1 [Example 1-38, trans-Ethyl 4-(2-(3-(difluoromethyl)-1-(4-fluorobenzyl)-4,5-dihydro-1H-pyrazolo[3,4-c]pyridin-6(7H)-yl)-2-oxoethyl)cyclohexanecarboxylate]	≤ 0.1 µM
CCOC(=O)[C@H]1CC[C@H](CC(=O)N2CCc3c(C4CC4)nn(Cc4ccc(F)cc4)c3C2)CC1 [Example 1-39, trans-Ethyl 4-(2-(3-cyclopropyl-1-(4-fluorobenzyl)-4,5-dihydro-1H-pyrazolo[3,4-c]pyridin-6(7H)-yl)-2-oxoethyl)cyclohexanecarboxylate]	≤ 0.1 µM
CCOC(=O)c1nn(Cc2ccc(F)cc2)c2c1CCN(C(=O)C[C@H]1CC[C@H](C(=O)OCC)CC1)C2 [Example 1-40, Ethyl 6-(2-(trans-4-(ethoxycarbonyl)cyclohexyl)acetyl)-1-(4-fluorobenzyl)-4,5,6,7-tetrahydro-1H-pyrazolo[3,4-c]pyridine-3-carboxylate]	> 0.5 µM and ≤ 10 µM
CCOC(=O)[C@H]1CC[C@H](CC(=O)N2CCc3c(CO)nn(Cc4ccc(F)cc4)c3C2)CC1 [Example 1-41, trans-Ethyl-4-(2-(1-(4-fluorobenzyl)-3-(hydroxymethyl)-4,5-dihydro-1H-pyrazolo[3,4-c]pyridin-6(7H)-yl)-2-oxoethyl)cyclohexanecarboxylate]	0.25 to 0.5 µM
CCOC(=O)[C@H]1CC[C@H](CC(=O)N2CCc3c(C(N)=O)nn(Cc4ccc(F)cc4)c3C2)CC1 [Example 1-42, trans-Ethyl 4-(2-(3-carbamoyl-1-(4-fluorobenzyl)-4,5-dihydro-1H-pyrazolo[3,4-c]pyridin-6(7H)-yl)-2-oxoethyl)cyclohexanecarboxylate]	> 0.5 µM and ≤ 10 µM
CCOC(=O)[C@H]1CC[C@H](CC(=O)N2CCc3c(C#N)nn(Cc4ccc(F)cc4)c3C2)CC1 [Example 1-43, trans-Ethyl 4-(2-(3-cyano-1-(4-fluorobenzyl)-4,5-dihydro-1H-pyrazolo[3,4-c]pyridin-6(7H)-yl)-2-oxoethyl)cyclohexanecarboxylate]	≤ 0.1 µM

Same assay, conditions: IC50, FRET assay, FS-3 2 μM, ATX 1.0 μg/mL, 30 minutes preincubation, 2 hours reaction at room temperature

Structure (SMILES)	IC50 [µM]
O=C(CC1CN2CCC1CC2)N1CCc2c(C(F)(F)F)nn(Cc3ccc(F)cc3)c2C1 (stereo not drawn) [Example 1-37, 1-(1-(4-Fluorobenzyl)-3-(trifluoromethyl)-4,5-dihydro-1H-pyrazolo[3,4-c]pyridin-6(7H)-yl)-2-(quinuclidin-3-yl)ethanone TFA salt]	≤ 0.1
